Values joined by “and” are separate entries in the source; they are usually repeats but may differ in a detail not shown here. Equal values may be shown once.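 Tested at 5 concentrations; 48 h exposure; 96-well plates; endpoints linearly interpolated, else capped at highest concentration. TGI: concentration producing complete growth inhibition.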
Tests used:
Assay in all cases: growth of human tumour cells (NCI), 48 h
[1] = tested on: T-47D breast
[2] = tested on: TK-10 renal
[3] = tested on: MDA-N
[4] = tested on: HOP-92 NSCLC
[5] = tested on: HS 578T breast
[6] = tested on: IGROV1 ovarian
[7] = tested on: CCRF-CEM leukemia
[8] = tested on: HT29 colon
[9] = tested on: K-562 leukemia
[10] = tested on: SF-268 CNS
[11] = tested on: COLO 205 colon

Measured: TGI

O=P1(c2ccccc2)C2=CCC=CC2C(c2ccccc2)N1Cc1ccccc1 (configuration not stated)
30.9 µM: [10]
32.9 µM: [6]
24.2 µM: [8]
35.5 µM: [9]
29 µM: [11]
35.4 µM: [2]
43.9 µM: [5]
34.9 µM: [7]
36.8 µM: [1]
26.6 µM: [4]
38.2 µM: [3]

CC[C@H](C)C1=C(OC(C)=O)[N@+]2([O-])Oc3ccc(-c4c(OC(C)=O)c(OC(C)=O)c(-c5ccc(OC(C)=O)cc5)c(OC(C)=O)c4OC(C)=O)cc3O[C@]2([C@@H](C)CC)C(=O)N1OC(C)=O
32 µM: [1]
15.8 µM: [11]
27.6 µM: [6]
11.3 µM: [7]
not listed: [4] | [5]
> 50 µM: all other assays above

CC(C)N(C(C)C)P(OCCC#N)OC1CC(n2cnc3c(=O)[nH]cnc32)OC1COC(=O)NCCCCCCNC(=O)OC(C)(C)c1ccc(-c2ccccc2)cc1 (configuration not stated)
38.4 µM: [6]
75.7 µM: [4]
43.8 µM: [7]
57.5 µM: [10]
37.5 µM: [9]
31.2 µM: [11]
> 100 µM: [2] | [8]

CCN(CC)CCNc1ccc2ncn3c4cc(=O)ccc4c(O)c1c23
47.1 µM: [2]
12.1 µM: [10]
16.8 µM: [7]
24.3 µM: [6]
16.6 µM: [11]
11.5 µM: [8]
6.78 µM: [4]
30 µM: [9]

C#CCOC(=O)C(N)CCSC (configuration not stated)
not listed: [9]
> 100 µM: all other assays above

O=C(O)CC(O)(C(=O)O)C(O)C(=O)O (configuration not stated)
867 µM: [5]
not listed: [4]
> 1000 µM: all other assays above

COc1ccccc1N=C1SCCN1C(=S)Nc1ccc(S(=O)(=O)/N=C/N(C)C)cc1
55.2 µM: [10]
not listed: [5] | [6] | [8]
> 100 µM: all other assays above

CC1(C)c2ccccc2C(O)C12CCC(=O)CC2 (configuration not stated)
not listed: [7]
> 100 µM: all other assays above

C/C=C1\CC(C(=O)OCC)CCCCCCCCCCC1=O (configuration not stated)
not listed: [4] | [9]
> 100 µM: all other assays above

OC1c2ccccc2C(O)C2OC12 (configuration not stated)
not listed: [5]
> 100 µM: all other assays above

c1ccc(CCn2cncn2)cc1
not listed: [1] | [3] | [5]
> 100 µM: all other assays above

CC(=O)O[C@H]1CC[C@H]2[C@@H]3CCC(C(C)=O)[C@H](C(=O)O)[C@H]3CC[C@]12C (some centres not stated)
not listed: [1] | [3]
> 100 µM: all other assays above

COc1cc2c(cc1OCCCCCOc1cc3c(cc1OC)C(=O)N1CCC[C@H]1CN3)N=C[C@@H]1CCCN1C2=O
50.4 µM: [5]
> 100 µM: [1] | [11]
37.3 µM: [8]
21.3 µM: [6]
17.6 µM: [9]
0.592 µM: [7]
61.8 µM: [10]
75.1 µM: [4]
63.3 µM: [2]

NC(N)=NCC(N)C(=O)O (configuration not stated)
not listed: [7]
> 100 µM: all other assays above

O=C1NC2(C=Cc3c(ccc4ccccc34)O2)Oc2ccccc21 (configuration not stated)
42.5 µM: [11]
58.3 µM: [10]
30.3 µM: [8]
32.1 µM: [7]
> 100 µM: [2] | [6] | [9]

CN(C)CCn1nc(N)c2nc3cc(C(F)(F)F)ccc3nc21
not listed: [1]
> 100 µM: all other assays above

COC(=O)C1C2CC3C(OC(=O)C31)C2OC(=O)[C@](OC)(c1ccccc1)C(F)(F)F (some centres not stated)
not listed: [1] | [3] | [5]
> 100 µM: all other assays above

Cc1ccc2c(=O)c(-c3n[nH]c(=S)s3)c[nH]c2n1
not listed: [4]
> 100 µM: all other assays above

O=C1N[C@@H](COc2ccc(C=Nc3ccc(CCc4ccc(N=Cc5ccc(OC[C@@H]6COC(=O)N6)cc5)cc4)cc3)cc2)CO1
not listed: [4] | [7]
> 100 µM: all other assays above

Cc1sc2nc3n(c(=O)c2c1C)N=C(c1ccc([N+](=O)[O-])cc1)CS3
not listed: [2] | [6]
> 100 µM: all other assays above

CC(=O)n1ccc2c(Cl)ncnc21
not listed: [1] | [3] | [5]
> 100 µM: all other assays above

COC[C@@H](Cc1ccc(OC)c(OC)c1)[C@@H](COC)Cc1ccc(OC)c(OC)c1
not listed: [1] | [3] | [5]
> 100 µM: all other assays above

CCC1(O)CC(OC2CC(N(C)C)C(OC3CC(O)C(OC4CCC(=O)C(C)O4)C(C)O3)C(C)O2)c2c(O)c3c(c(O)c2C1C(=O)OC)C(=O)c1cccc(O)c1C3=O (configuration not stated)
0.32 µM and 0.973 µM: [10]
0.124 µM: [11]
0.0328 µM: [7]
0.107 µM and 0.0142 µM: [3]
0.763 µM and 2.17 µM: [4]
0.0125 µM: [9]
0.0281 µM: [6]
0.392 µM and 0.211 µM: [2]
0.103 µM and 0.0147 µM: [8]

O=[N+]([O-])c1cc(Cl)ccc1S(=O)(=O)N1CCCc2cc(Cl)ccc21
not listed: [1]
> 100 µM: all other assays above

O=C(NN=C1CCCCC1)NN=C1CCCCC1
not listed: [4] | [10]
> 100 µM: all other assays above

O=C1C[C@H](c2ccc(O)c(O)c2)Oc2cc(O)cc(O)c21
not listed: [1] | [3] | [5]
> 100 µM: all other assays above

N=C(c1cccs1)C1(N2CCCCC2)CCCCC1
34.5 µM: [8]
37.5 µM: [4]
50.8 µM: [10]
27.1 µM: [1]
36.2 µM: [7]
35.7 µM: [2]
32 µM: [9]
39.6 µM: [6]
> 100 µM: [3] | [5]

CC1(C)CC[C@]2(C(=O)O)[C@H](O)C[C@]3(C)C(=CC[C@@H]4[C@@]5(C)CC[C@H](OC6OC(C(=O)O)C(O)C(O)C6O)C(C)(C)[C@@H]5CC[C@]43C)[C@@H]2C1 (some centres not stated)
39.2 µM: [4]
80.9 µM: [5]
not listed: [2]
> 100 µM: all other assays above

C[N+](C)(N)c1nc(N)c(C#N)c(C#N)c1C#N
not listed: [4]
> 10 µM: all other assays above

CC1(C)C2CCC(N)(C2)C1O (configuration not stated)
not listed: [5] | [8] | [10]
> 100 µM: all other assays above

COC(=O)[C@H](CCSC)NC(=O)c1ccc(CNC(=O)/C(C)=C/c2ccccc2)cc1
42.7 µM: [8]
70.1 µM: [10]
72.2 µM: [4]
not listed: [5]
> 100 µM: all other assays above

C=CCC(SC)C1=C(C)C(=O)c2ccccc21 (configuration not stated)
not listed: [5] | [11]
> 10 µM: all other assays above

CN(CCO)/N=N/c1[nH]ncc1C(N)=O
not listed: [1] | [2] | [3] | [5]
> 100 µM: all other assays above

CC(C)c1cccc(C(C)C)c1OS(=O)(=O)NC(=O)OC(C(F)(F)F)C(F)(F)F
59.9 µM: [4]
66.6 µM: [9]
not listed: [1] | [8]
> 100 µM: all other assays above

COc1ccc(N2C(=O)C3CC4=CC(=O)C[C@H]4[C@H]32)cc1 (some centres not stated)
> 100 µM: [1] | [2] | [5] | [9] | [10] | [11]
82.1 µM: [3]

c1ccc(C2[C@@H]3CCCc4ccccc4C3=NN2c2ccccc2)cc1 (some centres not stated)
not listed: [1] | [3] | [4] | [5]
> 100 µM: all other assays above

OC(c1ccccc1)(c1cccnc1)C(O)(c1ccccc1)c1cccnc1 (configuration not stated)
not listed: [9]
> 100 µM: all other assays above

COc1ccccc1NS(=O)(=O)c1ccc2ncn(NS(=O)(=O)c3ccc(Cl)cc3)c(=O)c2c1
not listed: [1]
> 100 µM: all other assays above

CN1C(=O)N(C)C2(CCN(CCCCCCF)CC2)C1=O
not listed: [4] | [5]
> 100 µM: all other assays above

Cc1cc(O)c(C(C)C)cc1N=Cc1ccccc1O
1.82 µM: [4]
> 22.3 µM: [9]
> 74 µM: [8]
0.0897 µM: [7]
21.4 µM: [10]
22.4 µM: [6]
17 µM: [3]
42.3 µM: [11]
> 46.4 µM: [5]
26.9 µM: [2]

Brc1cccc[n+]1-c1ccc2cc(-[n+]3ccccc3Br)ccc2c1
28 µM: [6]
58.4 µM: [1]
37.6 µM: [2]
90.4 µM: [10]
not listed: [3] | [4]
> 100 µM: all other assays above

COc1ccccc1NCC(=O)Nn1c(C)nc2ccc(S(=O)(=O)Nc3ccccc3OC)cc2c1=O
not listed: [1]
> 100 µM: all other assays above

CCCCNC(=S)Nc1nc(C(=O)NNC(=O)c2ccccc2)cs1
27.3 µM: [11]
60.6 µM: [2]
39.4 µM: [1] | [3]
40.6 µM: [6]
not listed: [5]
> 100 µM: all other assays above

Cc1cccc(NC2=NCCO2)c1Cl
not listed: [3]
> 100 µM: all other assays above

COc1ccc(C2C(Cl)C(=O)N2NC(=O)Cc2ccccc2)cc1OC (configuration not stated)
not listed: [1] | [3] | [4] | [5]
> 100 µM: all other assays above
